Laboratory results from paper PMC6213020, “Identification of a Novel PPAR-γ Agonist through a Scaffold Tuning Approach” (International Journal of Molecular Sciences, 2018).

How the values were obtained:
PPAR-γ = biological target: T1, PPAR-γ (Homo sapiens, UniProt P37231); experiment: cell-based PPAR transactivation (luciferase) assay, PPAR-γ; conditions: for activation at 10 µM: 24 h, compounds 10 µM, relative to maximum activation with pioglitazone (10 µM), PPAR-Luc in CV-1 cells, read-out: % max PPAR-γ
T1 construct: host or cells: CV-1
T1 sequence (P37231 1-505): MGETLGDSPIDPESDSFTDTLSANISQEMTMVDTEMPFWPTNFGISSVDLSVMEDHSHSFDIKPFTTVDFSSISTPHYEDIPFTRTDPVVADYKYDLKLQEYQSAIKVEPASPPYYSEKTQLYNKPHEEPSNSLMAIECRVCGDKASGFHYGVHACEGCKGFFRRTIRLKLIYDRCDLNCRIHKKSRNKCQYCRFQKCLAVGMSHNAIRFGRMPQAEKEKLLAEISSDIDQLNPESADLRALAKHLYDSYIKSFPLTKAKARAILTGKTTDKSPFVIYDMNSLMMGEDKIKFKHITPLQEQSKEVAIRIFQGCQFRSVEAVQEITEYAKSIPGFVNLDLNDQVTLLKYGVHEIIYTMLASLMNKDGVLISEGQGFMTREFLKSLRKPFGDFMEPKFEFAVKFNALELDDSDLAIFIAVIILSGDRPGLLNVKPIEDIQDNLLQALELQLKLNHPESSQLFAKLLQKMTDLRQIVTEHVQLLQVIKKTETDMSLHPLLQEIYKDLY
Experimental: (§1) The PPAR activities of the synthesized dichloroanilide-linked indole analogs were assessed using a standard cell-based transactivation assay in CV-1 cells. GW7647 [42], pioglitazone, and GW0742 [43] were used as positive controls for PPAR-α, -γ, and -δ, respectively. These three positive controls presented the maximum activation for each PPAR subtype. The activity of the compounds was presented as the activation percentage (%) relative to the maximum values of the positive controls at the indicated concentrations.
(§2) Transient transfection and luciferase assay was carried out. CV-1 cells were seeded in 48-well plates at a density of 1.5 × 10^5 cells/well in Dulbecco’s modified Eagle’s medium (DMEM) with containing 10% fetal bovine serum (FBS). The cells were transiently transfected with plasmid mixtures containing PPAR-α/γ expression vector and tk-PPRE-luciferase (Luc) vector for 6 h and then treated with the samples for 24 h. HEK293t cells were seeded in a 60-mm dish at a density of 1.5 × 10^6 cells/dish. After transfection with the plasmid mixtures containing PPAR-δ expression vector and Luc vector for 6 h, the cells were transferred to a 96-well plate and treated with the samples. To normalize the transfection efficiency, a β-galactosidase plasmid was cotransfected. The luciferase activity in the cell lysates was measured using a luciferase assay system (Promega Corp., Madison, WI, USA), and the β-galactosidase activity was determined by measuring the absorbance at 410 nm using an ELISA plate reader. The data were expressed as the relative luciferase activity divided by the β-galactosidase activity. All constructs were kindly gifted by Dr. Ronald M. Evans at The Salk Institute (La Jolla, CA, USA).

PPAR-δ = biological target: T2, PPAR-δ (Homo sapiens, UniProt Q03181); experiment: cell-based PPAR transactivation (luciferase) assay, PPAR-δ; conditions: compounds 10 µM; relative to maximum activation with GW0742 (10 μM); PPAR-Luc in HEK293t cells; read-out: % max PPAR-δ
T2 construct: host or cells: HEK293t
T2 sequence (Q03181 1-441): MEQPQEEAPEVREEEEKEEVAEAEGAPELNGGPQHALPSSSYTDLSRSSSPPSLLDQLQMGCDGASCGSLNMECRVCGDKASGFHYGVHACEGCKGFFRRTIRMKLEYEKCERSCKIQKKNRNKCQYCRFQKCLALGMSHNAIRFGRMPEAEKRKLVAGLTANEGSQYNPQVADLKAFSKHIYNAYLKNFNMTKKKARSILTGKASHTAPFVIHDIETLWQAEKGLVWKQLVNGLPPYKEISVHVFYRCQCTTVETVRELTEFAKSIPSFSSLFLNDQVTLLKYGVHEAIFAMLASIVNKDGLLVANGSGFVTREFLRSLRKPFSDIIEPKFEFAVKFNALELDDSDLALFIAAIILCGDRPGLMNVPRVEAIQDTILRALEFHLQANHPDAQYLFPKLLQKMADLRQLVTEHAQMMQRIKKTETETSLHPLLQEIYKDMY
Experimental: as §1, §2

PPAR-α = biological target: T3, PPAR-α (Homo sapiens, UniProt Q07869); experiment: TR-FRET LanthaScreen PPAR coactivator recruit assay, PPAR-α (PGC1a peptide); assay type: biochemical
T3 construct: purchased Invitrogen / Thermo Fisher Scientific (assay service)
T3 sequence (Q07869 239-466 limits assumed): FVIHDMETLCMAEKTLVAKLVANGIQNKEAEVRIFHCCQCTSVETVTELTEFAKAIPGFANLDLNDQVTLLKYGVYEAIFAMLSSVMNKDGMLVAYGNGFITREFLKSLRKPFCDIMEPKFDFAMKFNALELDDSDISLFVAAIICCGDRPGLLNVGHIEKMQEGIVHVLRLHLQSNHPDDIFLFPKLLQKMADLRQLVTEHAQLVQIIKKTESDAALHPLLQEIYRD
Description: Binding of agonist to the PPAR LBD causes a conformational change around helix 12 in the LBD, resulting in higher affinity for the coactivator peptide. When the terbium label on the anti-GST antibody complexed with PPAR is excited at 340 nm, energy is transferred to the fluorescein label on the coactivator peptide and detected as emission at 520 nm. […] Based on the biology of the PPAR-coactivator peptide interaction, this ligand EC50 is a composite value representing the amount of ligand required to bind to receptor, effect a conformational change, and recruit coactivator peptide. Potency of compounds show similar order to their activity (Table 3). […] Ligands such as TZDs show little or no binding to PPAR-δ. Compound 11 and 15 have ortho or meta substituted benzoic acid as an acidic head group. Their acidic head groups might seem to be too large to fit within the narrow PPAR-δ pocket. In contrast, the compound 1 and 2 contains an acetic acid head group that complements the narrow PPAR-δ ligand binding. […] The potency and selectivity of compound 11 could be explained by harmonization of steric effect of acidic head group, length and rigidity of hydrophobic tail, and properly tuned aromatic linker system.
EC50 of compounds were determined by recruitment of transcriptional coactivators using the TR-FRET based Lanthascreen coactivator assays (Invitrogen, Carlsbad, CA, USA). Which was serviced by Thermo Fisher Scientific (Medicon, WI, USA) according to the LanthaScreen TR-FRET coregulator protocol and assay conditions. Coregulator peptide PGC1a, TRAP220/DRIP2 and C33 was used for the coactivator recruit assay of PPAR-α, -γ, and -δ, respectively.

SMILES: O=C(COc1ccc2c(c1)c(Cc1ccccc1)cn2Cc1ccccc1C(=O)O)Nc1ccc(Cl)cc1Cl [Compound 18, 2-((3-Benzyl-5-(2-((2,4-dichlorophenyl)amino)-2-oxoethoxy)-1H-indol-1-yl)methyl)benzoic acid]
- activation at 10 µM (PPAR-γ): 93.2 ± 0.59%
- activation at 10 µM (PPAR-δ): 75.88 ± 0.35%
- EC50 (PPAR-α): > 100 µM

SMILES: O=C(COc1ccc2ccn(Cc3cccc(C(=O)O)c3)c2c1)Nc1ccc(Cl)cc1Cl [Compound 15, 3-((6-(2-((2,4-Dichlorophenyl)amino)-2-oxoethoxy)-1H-indol-1-yl)methyl)benzoic acid]
- activation at 10 µM (PPAR-γ): 126.5 ± 0.92%
- activation at 10 µM (PPAR-δ): 86.09 ± 0.31%
- EC50 (PPAR-α): > 100 µM

SMILES: O=C(COc1ccc2c(ccn2Cc2ccccc2C(=O)O)c1)Nc1ccc(Cl)cc1Cl [Compound 12, 2-((5-(2-((2,4-Dichlorophenyl)amino)-2-oxoethoxy)-1H-indol-1-yl)methyl)benzoic acid]
- activation at 10 µM (PPAR-γ): 189.2 ± 1.67%
- PPAR-γ activity relative to that of pioglitazone (PPAR-γ; cell-based reporter assay): approximately 2 fold
- activation at 10 µM (PPAR-δ): 94.86 ± 0.2%
- EC50 (PPAR-α): 3.87 µM

SMILES: O=C(COc1ccc2ccn(Cc3ccccc3C(=O)O)c2c1)Nc1ccc(Cl)cc1Cl [Compound 13, 2-((6-(2-((2,4-Dichlorophenyl)amino)-2-oxoethoxy)-1H-indol-1-yl)methyl)benzoic acid]
- activation at 10 µM (PPAR-γ): 74.5 ± 0.94%
- activation at 10 µM (PPAR-δ): 86.7 ± 0.53%
- EC50 (PPAR-α): 16.9 µM
